ChEMBL document CHEMBL1153382 (J Med Chem, 2009)
One block for each molecule: values may come before it. Calls of active or inactive are those of the source. The calls are words filed in the database; no cut-off is given here.

Tests used:
[1] = target: T1, 5-hydroxytryptamine receptor 2A (Homo sapiens, UniProt P28223); test: Agonist activity at human 5HT2A receptor expressed in HEK293 cells at 10 uM assessed as calcium flux by FLIPR assay relative to serotonin; format: functional, cell-based
[2] = target: Serotonin 2 receptors; 5-HT2a & 5-HT2c (Homo sapiens) (UniProt P28223+P28335); test: Selectivity ratio of EC50 for human 5HT2A receptor to EC50 for human 5HT2C receptor
Chain of Serotonin 2 receptors; 5-HT2a & 5-HT2c (Homo sapiens) (P28223 whole entry, looked up, one chain of several): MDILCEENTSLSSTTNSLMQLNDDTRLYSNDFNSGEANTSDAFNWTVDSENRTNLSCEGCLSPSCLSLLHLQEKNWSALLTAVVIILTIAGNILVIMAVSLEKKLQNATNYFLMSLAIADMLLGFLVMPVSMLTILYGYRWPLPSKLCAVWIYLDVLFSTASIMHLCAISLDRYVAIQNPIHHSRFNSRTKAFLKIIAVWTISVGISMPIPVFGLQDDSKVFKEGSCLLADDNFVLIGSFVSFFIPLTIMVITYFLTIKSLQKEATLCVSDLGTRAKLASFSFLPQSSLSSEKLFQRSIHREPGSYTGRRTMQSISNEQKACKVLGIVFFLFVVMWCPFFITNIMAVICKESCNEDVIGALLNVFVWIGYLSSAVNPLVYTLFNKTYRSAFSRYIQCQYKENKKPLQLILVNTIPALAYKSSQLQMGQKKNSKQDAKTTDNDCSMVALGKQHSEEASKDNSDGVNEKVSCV

Homo sapiens = species: Homo sapiens; test: Selectivity ratio of EC50 for human 5HT2B receptor to EC50 for human 5HT2C receptor
[3] = target: T2, 5-hydroxytryptamine receptor 2C (Homo sapiens) (UniProt P28335); test: Agonist activity at human 5HT2C receptor expressed in HEK293 cells at 10 uM assessed as calcium flux by FLIPR assay relative to serotonin; format: functional, cell-based
T2 sequence (whole entry): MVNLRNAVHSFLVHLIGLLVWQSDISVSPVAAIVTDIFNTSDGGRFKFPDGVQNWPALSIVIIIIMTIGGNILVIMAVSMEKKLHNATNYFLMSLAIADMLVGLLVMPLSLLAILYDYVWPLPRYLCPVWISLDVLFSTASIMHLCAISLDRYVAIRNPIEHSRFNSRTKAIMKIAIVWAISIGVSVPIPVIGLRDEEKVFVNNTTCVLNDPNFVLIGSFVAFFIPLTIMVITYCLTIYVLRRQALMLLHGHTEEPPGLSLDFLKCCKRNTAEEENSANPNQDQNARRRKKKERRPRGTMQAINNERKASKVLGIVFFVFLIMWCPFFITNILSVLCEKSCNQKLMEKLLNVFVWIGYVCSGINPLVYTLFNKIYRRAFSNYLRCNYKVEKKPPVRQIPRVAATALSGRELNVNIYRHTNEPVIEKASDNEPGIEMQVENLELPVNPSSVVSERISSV

[4] = target: T3, 5-hydroxytryptamine receptor 2B (Homo sapiens, UniProt P41595); test: Agonist activity at human 5HT2B receptor expressed in HEK293 cells at 10 uM assessed as calcium flux by FLIPR assay relative to serotonin; format: functional, cell-based
T3 sequence (P41595 whole entry): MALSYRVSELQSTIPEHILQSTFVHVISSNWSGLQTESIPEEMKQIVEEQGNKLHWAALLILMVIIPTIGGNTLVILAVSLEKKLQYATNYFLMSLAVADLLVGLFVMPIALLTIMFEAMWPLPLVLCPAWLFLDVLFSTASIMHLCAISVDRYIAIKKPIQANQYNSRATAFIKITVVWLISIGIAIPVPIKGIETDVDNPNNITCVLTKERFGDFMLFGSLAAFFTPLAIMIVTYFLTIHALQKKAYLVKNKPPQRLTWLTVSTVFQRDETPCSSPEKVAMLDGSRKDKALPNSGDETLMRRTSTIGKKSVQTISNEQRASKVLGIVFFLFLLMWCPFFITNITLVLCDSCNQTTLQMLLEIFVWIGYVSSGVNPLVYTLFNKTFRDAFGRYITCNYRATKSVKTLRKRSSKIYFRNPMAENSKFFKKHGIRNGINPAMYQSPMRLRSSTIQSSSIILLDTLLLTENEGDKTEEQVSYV

[5] = target: T1, 5-hydroxytryptamine receptor 2A; test: Agonist activity at human 5HT2A receptor expressed in HEK293 cells assessed as calcium flux by FLIPR assay; format: functional, cell-based
[6] = target: T3, 5-hydroxytryptamine receptor 2B; test: Agonist activity at human 5HT2B receptor expressed in HEK293 cells assessed as calcium flux by FLIPR assay; format: functional, cell-based
[7] = target: T4, 5-hydroxytryptamine receptor 2C (Homo sapiens, UniProt P28335); test: Agonist activity at human 5HT2C receptor expressed in HEK293 cells assessed as calcium flux by FLIPR assay; format: functional, cell-based
T4 sequence (P28335 whole entry): T2 sequence (whole entry)

T1 sequence (P28223 whole entry): as the sequence (P28223 whole entry, looked up, one chain of several) above

SMILES: Cc1ccccc1[C@H]1C[C@@H]1CN (relative stereo)
- Emax [1]: 69%
- Ratio EC50 [2]: 71
- Ratio EC50 (Homo sapiens): 2.3
- Emax [3]: 99%
- Emax [4]: 86%

SMILES: NC[C@@H]1C[C@H]1c1ccccc1 [listing 1 of 2 here]
- Emax [1]: < 12%
- Activity [5]: inactive
- Ratio EC50 (Homo sapiens): 3.4
- Emax [3]: 102%
- Emax [4]: 72%

SMILES: NC[C@H]1C[C@@H]1c1ccc(F)c(F)c1 (relative stereo)
- Emax [1]: 96%
- Ratio EC50 [2]: 64
- Ratio EC50 (Homo sapiens): 3.2
- Emax [3]: 103%
- Emax [4]: 96%

SMILES: NC[C@H]1C[C@@H]1c1ccc(Cl)cc1 (relative stereo)
- Emax [1]: 64%
- Ratio EC50 [2]: 59
- Ratio EC50 (Homo sapiens): 5.3
- Emax [3]: 106%
- Emax [4]: 80%

SMILES: NC[C@H]1C[C@@H]1c1ccccc1F (relative stereo)
- Emax [1]: 52%
- Ratio EC50 [2]: 20
- Ratio EC50 (Homo sapiens): 2.1
- Emax [3]: 91%
- Emax [4]: 65%

SMILES: Cc1cccc(Cl)c1[C@H]1C[C@@H]1CN (relative stereo)
- Emax [1]: 56%
- Ratio EC50 [2]: 207
- Ratio EC50 (Homo sapiens): 2
- Emax [3]: 97%
- Emax [4]: 90%

SMILES: NC[C@H]1C[C@@H]1c1ccc(C(F)(F)F)cc1 (relative stereo)
- Emax [1]: < 12%
- Activity [5]: inactive
- Emax [3]: 91%
- Emax [4]: 56%

SMILES: NC[C@H]1C[C@@H]1c1cccc(F)c1F (relative stereo)
- Emax [1]: 45%
- Ratio EC50 [2]: > 50
- Ratio EC50 (Homo sapiens): 3.7
- Emax [3]: 101%
- Emax [4]: 93%

SMILES: NC[C@H]1C[C@@H]1c1cccc(Br)c1 (relative stereo)
- Emax [1]: 55%
- Ratio EC50 [2]: 123
- Ratio EC50 (Homo sapiens): 10
- Emax [3]: 90%
- Emax [4]: 74%

SMILES: NC[C@H]1C[C@@H]1c1c(F)cccc1F (relative stereo)
- Emax [1]: 38%
- Ratio EC50 [2]: > 11
- Ratio EC50 (Homo sapiens): 39
- Emax [3]: 85%
- Emax [4]: 58%

SMILES: COc1cccc([C@H]2C[C@@H]2CN)c1 (relative stereo)
- Emax [1]: 90%
- Ratio EC50 [2]: 39
- Ratio EC50 (Homo sapiens): 4.8
- Emax [3]: 97%
- Emax [4]: 96%

SMILES: NC[C@H]1C[C@H]1c1ccccc1 (racemic)
- Emax [1]: < 12%
- Activity [5]: inactive
- Emax [3]: 104%
- Emax [4]: 20%

SMILES: NC[C@H]1C[C@@H]1c1cccc(Cl)c1Cl (relative stereo)
- Emax [1]: 77%
- Ratio EC50 [2]: 33
- Ratio EC50 (Homo sapiens): 1.4
- Emax [3]: 96%
- Emax [4]: 89%

SMILES: NC[C@@H]1C[C@H]1c1ccccc1 (relative stereo) [listing 1 of 2 here]
- EC50 [6]: 85 nM
- EC50 [5]: 1400 nM
- EC50 [7]: 13 nM

SMILES: NC[C@H]1C[C@@H]1c1ccc2ccccc2c1 (relative stereo)
- Emax [1]: < 12%
- Activity [5]: inactive
- Ratio EC50 (Homo sapiens): 0.18
- Emax [3]: 60%
- Emax [4]: 21%

- Emax [1]: < 12%
- Activity [6]: inactive
- Activity [5]: inactive
- Emax [3]: 75%
- EC50 [7]: 1200 nM
- Emax [4]: < 12%
SMILES: NC[C@H]1C[C@@H]1c1ccc(-c2ccco2)cc1 (relative stereo)

SMILES: NC[C@@H]1C[C@H]1c1ccccc1 [listing 2 of 2 here]
- EC50 [6]: 3090 nM
- EC50 [7]: 909 nM

SMILES: NC[C@H]1C[C@@H]1c1ccccc1O (relative stereo)
- Emax [1]: 81%
- Ratio EC50 [2]: 3.2
- Ratio EC50 (Homo sapiens): 3.1
- Emax [3]: 94%
- Emax [4]: 74%

- Emax [1]: < 12%
- Activity [6]: inactive
- Activity [5]: inactive
- Emax [3]: 38%
- EC50 [7]: > 1000 nM
- Emax [4]: < 12%
SMILES: NC[C@H]1C[C@@H]1c1ccccc1NC(=O)Nc1ccc(Cl)cc1 (relative stereo)

SMILES: c1cc2c3c(c1)c1c(n3CCNC2)CCCC1
- Emax [1]: < 12%
- Activity [6]: inactive
- Activity [5]: inactive
- EC50 [7]: 261 nM
- Emax [4]: < 12%

SMILES: Cc1ccc(Cl)c([C@H]2C[C@@H]2CN)c1F (relative stereo)
- Emax [1]: 65%
- Ratio EC50 [2]: 26
- Ratio EC50 (Homo sapiens): 9.2
- Emax [3]: 117%
- Emax [4]: 74%

SMILES: NC[C@H]1C[C@@H]1c1ccc(F)cc1F (relative stereo)
- Emax [1]: 85%
- Ratio EC50 [2]: 13
- Ratio EC50 (Homo sapiens): 9.9
- Emax [3]: 98%
- Emax [4]: 88%

SMILES: NC[C@H]1C[C@@H]1c1ccc(Cl)cc1F (relative stereo)
- Emax [1]: 83%
- Ratio EC50 [2]: 6.1
- Ratio EC50 (Homo sapiens): 3.6
- Emax [3]: 94%
- Emax [4]: 86%

SMILES: NC[C@H]1C[C@@H]1c1ccccc1C(F)(F)F (relative stereo)
- Emax [1]: < 12%
- Activity [5]: inactive
- Ratio EC50 (Homo sapiens): 7.2
- Emax [3]: 101%
- Emax [4]: 102%

SMILES: COc1ccccc1[C@H]1C[C@@H]1CN (relative stereo)
- Emax [1]: 61%
- Ratio EC50 [2]: 84
- Ratio EC50 (Homo sapiens): 7.7
- Emax [3]: 93%
- Emax [4]: 83%

- Emax [1]: < 12%
- Activity [6]: inactive
- Activity [5]: inactive
- Emax [3]: 77%
- EC50 [7]: 1180 nM
- Emax [4]: < 12%
SMILES: NC[C@H]1C[C@@H]1c1cccc(NCc2ccccc2)c1 (relative stereo)

- Emax [1]: < 12%
- Activity [6]: inactive
- Activity [5]: inactive
- Emax [3]: 39%
- EC50 [7]: > 1000 nM
- Emax [4]: < 12%
SMILES: NC[C@H]1C[C@@H]1c1ccccc1NC(=O)c1ccccc1 (relative stereo)

SMILES: Cc1cccc([C@H]2C[C@@H]2CN)c1C (relative stereo)
- Emax [1]: 59%
- Ratio EC50 [2]: 52
- Ratio EC50 (Homo sapiens): 1.2
- Emax [3]: 107%
- Emax [4]: 90%

SMILES: c1ccc(CNC[C@H]2C[C@@H]2c2ccccc2)cc1 (racemic)
- Emax [1]: < 12%
- Activity [6]: inactive
- Activity [5]: inactive
- Emax [3]: 97%
- Emax [4]: 10%

SMILES: Cc1cc([C@H]2C[C@@H]2CN)ccc1F (relative stereo)
- Emax [1]: 73%
- Ratio EC50 [2]: 39
- Ratio EC50 (Homo sapiens): 0.83
- Emax [3]: 91%
- Emax [4]: 83%

SMILES: Cc1ccc([C@H]2C[C@@H]2CN)c(Br)c1 (relative stereo)
- Emax [1]: 62%
- Ratio EC50 [2]: 4.8
- Ratio EC50 (Homo sapiens): 1.2
- Emax [3]: 84%
- Emax [4]: 68%

SMILES: NC[C@H]1C[C@@H]1c1ccc(Br)cc1 (relative stereo)
- Emax [1]: 26%
- Ratio EC50 [2]: > 7
- Ratio EC50 (Homo sapiens): 20
- Emax [3]: 87%
- Emax [4]: 51%

SMILES: NC[C@H]1C[C@@H]1c1cccc(F)c1 (relative stereo)
- Emax [1]: 71%
- Ratio EC50 [2]: 131
- Ratio EC50 (Homo sapiens): 1.1
- Emax [3]: 92%
- Emax [4]: 87%

SMILES: COc1ccc([C@H]2C[C@@H]2CN)cc1 (relative stereo)
- Emax [1]: < 12%
- Activity [6]: inactive
- Activity [5]: inactive
- Emax [3]: 86%
- Emax [4]: < 12%

SMILES: NC[C@@H]1C[C@H]1c1ccccc1Br [listing 1 of 2 here]
- Emax [1]: < 12%
- Activity [5]: inactive
- Ratio EC50 [2]: > 128
- Ratio EC50 (Homo sapiens): 2.9
- Emax [3]: 113%
- Emax [4]: 96%

SMILES: NC[C@@H]1C[C@H]1c1ccccc1 (relative stereo) [listing 2 of 2 here]
- Emax [1]: 74%
- Ratio EC50 [2]: 106
- Ratio EC50 (Homo sapiens): 6
- Emax [3]: 96%
- Emax [4]: 93%

SMILES: NC[C@H]1C[C@@H]1c1cccc(C(F)(F)F)c1 (relative stereo)
- Emax [1]: 35%
- Ratio EC50 [2]: 50
- Ratio EC50 (Homo sapiens): 2.6
- Emax [3]: 94%
- Emax [4]: 78%

SMILES: NC[C@H]1C[C@@H]1c1ccccc1Cl (relative stereo)
- Emax [1]: 54%
- Ratio EC50 [2]: 31
- Ratio EC50 (Homo sapiens): 5.8
- Emax [3]: 94%
- Emax [4]: 82%

SMILES: NC[C@@H]1C[C@H]1c1ccccc1Br [listing 2 of 2 here]
- EC50 [6]: 224 nM
- EC50 [7]: 78 nM

SMILES: NC[C@H]1C[C@@H]1c1cccc(O)c1 (relative stereo)
- Emax [1]: 92%
- Ratio EC50 [2]: 75
- Ratio EC50 (Homo sapiens): 1.7
- Emax [3]: 94%
- Emax [4]: 98%

SMILES: NC[C@H]1C[C@@H]1c1cccc(Cl)c1 (relative stereo)
- Emax [1]: 42%
- Ratio EC50 [2]: 189
- Ratio EC50 (Homo sapiens): 5.9
- Emax [3]: 98%
- Emax [4]: 78%

SMILES: NC[C@H]1C[C@@H]1c1ccc(Cl)cc1Cl (relative stereo)
- Emax [1]: 88%
- Ratio EC50 [2]: 2.9
- Ratio EC50 (Homo sapiens): 4.7
- Emax [3]: 98%
- Emax [4]: 89%

SMILES: CNC[C@H]1C[C@@H]1c1ccccc1 (racemic)
- Emax [1]: < 12%
- Activity [5]: inactive
- Emax [3]: 101%
- Emax [4]: 26%

SMILES: Cc1ccc([C@H]2C[C@@H]2CN)cc1 (relative stereo)
- Emax [1]: 18%
- Ratio EC50 [2]: 14
- Ratio EC50 (Homo sapiens): 0.28
- Emax [3]: 69%
- Emax [4]: 79%

SMILES: Cc1ccc([C@H]2C[C@@H]2CN)cc1C (relative stereo)
- Emax [1]: 40%
- Ratio EC50 [2]: 68
- Ratio EC50 (Homo sapiens): 0.33
- Emax [3]: 97%
- Emax [4]: 78%
